What was measured:
Assay in all cases: KAM-matrix competition in K562 lysate;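 for 0.001 uM KAM: median log10 fold change of treatment over DMSO control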;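 for 0.01 uM KAM: median log10 fold change of treatment over DMSO control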;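 for 0.1 uM KAM: median log10 fold change of treatment over DMSO control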;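 for 1 uM KAM: median log10 fold change of treatment over DMSO control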;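 for 10 uM KAM: median log10 fold change of treatment over DMSO control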
Assay type in all cases: binding
RPS6KA4 = target: T1, RPS6KA4 (Homo sapiens, UniProt O75676)
T1 construct: endogenous in cells; host or cells: K562
T1 sequence (O75676 whole entry): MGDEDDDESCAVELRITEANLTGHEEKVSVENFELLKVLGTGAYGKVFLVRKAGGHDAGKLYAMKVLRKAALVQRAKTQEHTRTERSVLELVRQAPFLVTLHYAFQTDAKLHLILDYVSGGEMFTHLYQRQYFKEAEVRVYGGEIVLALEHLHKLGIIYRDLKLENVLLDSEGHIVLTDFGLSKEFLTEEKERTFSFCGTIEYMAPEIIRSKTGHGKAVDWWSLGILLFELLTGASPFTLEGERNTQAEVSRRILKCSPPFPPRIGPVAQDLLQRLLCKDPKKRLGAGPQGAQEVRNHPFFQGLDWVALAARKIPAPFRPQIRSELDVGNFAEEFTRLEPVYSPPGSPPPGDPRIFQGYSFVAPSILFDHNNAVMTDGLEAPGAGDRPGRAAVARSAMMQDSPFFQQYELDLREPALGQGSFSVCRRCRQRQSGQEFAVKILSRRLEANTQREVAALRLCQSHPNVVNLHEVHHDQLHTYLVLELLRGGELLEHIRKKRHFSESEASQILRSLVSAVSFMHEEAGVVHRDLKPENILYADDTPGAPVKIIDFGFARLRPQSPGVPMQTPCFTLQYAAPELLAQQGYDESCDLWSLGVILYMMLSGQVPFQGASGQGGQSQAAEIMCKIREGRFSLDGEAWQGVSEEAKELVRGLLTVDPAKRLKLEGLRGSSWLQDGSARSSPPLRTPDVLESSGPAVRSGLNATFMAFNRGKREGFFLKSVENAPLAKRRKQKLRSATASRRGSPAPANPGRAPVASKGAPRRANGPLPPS
Method: (§1) Supplement 12953_2017_125_MOESM1_ESM.zip/MS_Supp Info.xlsx, sheet "KAM" | column: 10 uM KAM; 1 uM KAM; 0.1 uM KAM; 0.01 uM KAM; 0.001 uM KAM; RB50

MAP3K2 = target: T2, MAP3K2 (Homo sapiens, UniProt Q9Y2U5)
T2 construct: endogenous in cells; host or cells: K562
T2 sequence (Q9Y2U5 1-619): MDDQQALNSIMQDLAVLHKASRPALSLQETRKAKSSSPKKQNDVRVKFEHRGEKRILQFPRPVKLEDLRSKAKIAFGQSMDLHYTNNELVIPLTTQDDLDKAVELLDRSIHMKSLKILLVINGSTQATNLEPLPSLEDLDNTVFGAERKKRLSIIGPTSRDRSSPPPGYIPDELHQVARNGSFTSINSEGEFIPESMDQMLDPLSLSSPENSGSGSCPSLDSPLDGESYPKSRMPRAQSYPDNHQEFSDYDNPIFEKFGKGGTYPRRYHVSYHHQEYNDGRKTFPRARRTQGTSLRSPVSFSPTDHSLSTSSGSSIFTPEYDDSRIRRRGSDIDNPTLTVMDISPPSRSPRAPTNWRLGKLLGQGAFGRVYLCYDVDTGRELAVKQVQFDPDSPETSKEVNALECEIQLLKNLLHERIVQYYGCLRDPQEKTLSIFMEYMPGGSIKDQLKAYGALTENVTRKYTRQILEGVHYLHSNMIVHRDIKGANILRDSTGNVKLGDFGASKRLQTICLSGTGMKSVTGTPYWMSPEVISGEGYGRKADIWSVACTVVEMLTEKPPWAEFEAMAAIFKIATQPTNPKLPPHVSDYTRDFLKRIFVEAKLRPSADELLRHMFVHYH
Method: as §1

PRKDC = target: T3, PRKDC (Homo sapiens, UniProt P78527);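 for 0.001 uM KAM: median log10 fold change of treatment over DMSO control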;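 for 0.01 uM KAM: median log10 fold change of treatment over DMSO control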;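 for 0.1 uM KAM: median log10 fold change of treatment over DMSO control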;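 for 1 uM KAM: median log10 fold change of treatment over DMSO control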;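 for 10 uM KAM: median log10 fold change of treatment over DMSO control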
T3 construct: endogenous in cells; host or cells: K562
Method: as §1

MAPKAPK2 = target: T4, MAPKAPK2 (Homo sapiens, UniProt P49137);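 for 0.001 uM KAM: median log10 fold change of treatment over DMSO control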;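 for 0.01 uM KAM: median log10 fold change of treatment over DMSO control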;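 for 0.1 uM KAM: median log10 fold change of treatment over DMSO control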;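 for 1 uM KAM: median log10 fold change of treatment over DMSO control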;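 for 10 uM KAM: median log10 fold change of treatment over DMSO control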
T4 construct: endogenous in cells; host or cells: K562
T4 sequence (P49137 whole entry): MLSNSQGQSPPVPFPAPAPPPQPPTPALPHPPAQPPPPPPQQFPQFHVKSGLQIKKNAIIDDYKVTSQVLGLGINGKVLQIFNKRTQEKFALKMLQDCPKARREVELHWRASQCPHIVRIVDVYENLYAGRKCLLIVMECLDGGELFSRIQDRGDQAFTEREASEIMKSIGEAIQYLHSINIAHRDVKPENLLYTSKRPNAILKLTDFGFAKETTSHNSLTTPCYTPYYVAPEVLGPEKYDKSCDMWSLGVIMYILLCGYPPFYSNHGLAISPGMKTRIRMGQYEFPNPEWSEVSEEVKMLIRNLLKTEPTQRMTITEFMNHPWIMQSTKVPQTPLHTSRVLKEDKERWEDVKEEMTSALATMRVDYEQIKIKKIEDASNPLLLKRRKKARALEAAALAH
Method: as §1

MAPK9 = target: T5, MAPK9 (Homo sapiens, UniProt P45984)
T5 construct: endogenous in cells; host or cells: K562
T5 sequence (P45984 whole entry): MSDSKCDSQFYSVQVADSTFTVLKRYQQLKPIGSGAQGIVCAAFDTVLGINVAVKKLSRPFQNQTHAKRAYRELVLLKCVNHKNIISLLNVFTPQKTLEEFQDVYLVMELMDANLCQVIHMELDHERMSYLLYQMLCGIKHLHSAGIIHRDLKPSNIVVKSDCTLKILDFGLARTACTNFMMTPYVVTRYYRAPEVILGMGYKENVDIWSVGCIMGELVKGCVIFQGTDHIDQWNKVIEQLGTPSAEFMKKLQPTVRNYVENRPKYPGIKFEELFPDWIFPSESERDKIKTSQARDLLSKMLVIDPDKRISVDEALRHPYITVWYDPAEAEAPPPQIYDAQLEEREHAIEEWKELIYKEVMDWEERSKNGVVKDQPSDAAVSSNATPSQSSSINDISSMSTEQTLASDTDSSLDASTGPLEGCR
Method: as §1

BAZ1B = target: T6, BAZ1B (Homo sapiens, UniProt Q9UIG0);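 for 0.001 uM KAM: median log10 fold change of treatment over DMSO control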;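 for 0.01 uM KAM: median log10 fold change of treatment over DMSO control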;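 for 0.1 uM KAM: median log10 fold change of treatment over DMSO control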;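 for 1 uM KAM: median log10 fold change of treatment over DMSO control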;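 for 10 uM KAM: median log10 fold change of treatment over DMSO control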
T6 construct: endogenous in cells; host or cells: K562
T6 sequence (Q9UIG0 1-1483): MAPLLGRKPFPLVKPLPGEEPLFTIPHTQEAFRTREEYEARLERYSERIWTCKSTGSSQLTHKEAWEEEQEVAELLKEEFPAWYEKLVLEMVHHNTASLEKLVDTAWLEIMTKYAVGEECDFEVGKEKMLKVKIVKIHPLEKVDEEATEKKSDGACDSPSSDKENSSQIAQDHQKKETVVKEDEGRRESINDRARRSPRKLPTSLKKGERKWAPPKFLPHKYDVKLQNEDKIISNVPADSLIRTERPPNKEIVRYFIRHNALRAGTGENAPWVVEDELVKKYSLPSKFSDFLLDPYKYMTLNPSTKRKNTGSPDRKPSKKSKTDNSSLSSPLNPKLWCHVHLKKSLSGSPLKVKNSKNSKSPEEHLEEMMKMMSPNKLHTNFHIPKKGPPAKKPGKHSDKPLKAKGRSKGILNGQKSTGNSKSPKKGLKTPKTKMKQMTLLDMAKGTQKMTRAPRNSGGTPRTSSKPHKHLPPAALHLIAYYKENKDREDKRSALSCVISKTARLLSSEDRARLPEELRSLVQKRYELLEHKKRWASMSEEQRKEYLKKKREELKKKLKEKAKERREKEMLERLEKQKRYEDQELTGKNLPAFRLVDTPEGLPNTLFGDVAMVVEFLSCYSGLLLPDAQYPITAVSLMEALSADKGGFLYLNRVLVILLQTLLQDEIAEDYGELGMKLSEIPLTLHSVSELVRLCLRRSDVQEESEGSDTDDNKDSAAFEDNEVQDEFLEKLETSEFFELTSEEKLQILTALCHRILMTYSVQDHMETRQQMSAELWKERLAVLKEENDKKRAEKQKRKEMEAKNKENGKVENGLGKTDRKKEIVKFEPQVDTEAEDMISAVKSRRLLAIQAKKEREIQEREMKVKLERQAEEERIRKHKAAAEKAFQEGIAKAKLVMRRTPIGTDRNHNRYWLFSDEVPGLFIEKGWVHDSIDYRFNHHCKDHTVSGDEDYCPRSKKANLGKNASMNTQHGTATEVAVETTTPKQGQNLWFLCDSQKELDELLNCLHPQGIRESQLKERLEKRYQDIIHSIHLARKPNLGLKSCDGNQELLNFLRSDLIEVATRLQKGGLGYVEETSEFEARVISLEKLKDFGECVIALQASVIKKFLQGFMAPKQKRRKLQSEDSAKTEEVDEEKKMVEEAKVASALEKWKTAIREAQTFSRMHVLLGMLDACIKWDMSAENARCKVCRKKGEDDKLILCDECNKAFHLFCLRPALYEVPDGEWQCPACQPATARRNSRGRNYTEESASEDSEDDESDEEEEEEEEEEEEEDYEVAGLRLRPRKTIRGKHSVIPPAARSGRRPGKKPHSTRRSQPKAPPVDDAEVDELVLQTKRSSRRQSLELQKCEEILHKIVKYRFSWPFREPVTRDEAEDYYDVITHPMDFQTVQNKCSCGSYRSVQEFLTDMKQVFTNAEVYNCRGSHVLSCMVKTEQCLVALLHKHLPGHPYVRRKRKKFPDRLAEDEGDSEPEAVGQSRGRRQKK
Method: as §1

[1] = read-out: RB50 (the source's name)
[2] = KAM 0.001-10 uM, read-out: RB50 (the source's name)

**Q.** With N#CCc1ccc(Nc2nc(NCCCN)cc(Nc3cc(C4CC4)[nH]n3)n2)cc1 [KAM] as the compound, how does the “median Log10 fold change” value (RPS6KA4; 0.001 uM KAM) read?
**A.** 0.007656

**Q.** And the “median Log10 fold change” value (RPS6KA4; 0.01 uM KAM)?
**A.** -0.02452

**Q.** What about the “median Log10 fold change” value (RPS6KA4; 0.1 uM KAM) of the same compound?
**A.** -0.1561

**Q.** What about the “median Log10 fold change” value (RPS6KA4; 1 uM KAM) of the same compound?
**A.** -0.4146

**Q.** And the “median Log10 fold change” value (RPS6KA4; 10 uM KAM)?
**A.** -0.4828

**Q.** And the IC50 (RPS6KA4; [1])?
**A.** 558 nM

**Q.** What about the “median Log10 fold change” value (MAP3K2; 0.001 uM KAM) of the same compound?
**A.** -0.0298

**Q.** And the “median Log10 fold change” value (MAP3K2; 0.01 uM KAM)?
**A.** 0.004839

**Q.** What about the “median Log10 fold change” value (MAP3K2; 0.1 uM KAM) of the same compound?
**A.** -0.103

**Q.** And the “median Log10 fold change” value (MAP3K2; 1 uM KAM)?
**A.** -0.3096

**Q.** What about the “median Log10 fold change” value (MAP3K2; 10 uM KAM) of the same compound?
**A.** -0.4027

**Q.** And the IC50 (MAP3K2; [1])?
**A.** 1330 nM

**Q.** What about the IC50 (PRKDC; [2]) of the same compound?
**A.** > 10000 nM

**Q.** And the “0.001 uM KAM” value (PRKDC; relative to 0 uM KAM = 0)?
**A.** -0.0162

**Q.** And the “0.01 uM KAM” value (PRKDC; relative to 0 uM KAM = 0)?
**A.** -0.0236

**Q.** And the “0.1 uM KAM” value (PRKDC; relative to 0 uM KAM = 0)?
**A.** -0.1053

**Q.** And the “1 uM KAM” value (PRKDC; relative to 0 uM KAM = 0)?
**A.** -0.1689

**Q.** And the “10 uM KAM” value (PRKDC; relative to 0 uM KAM = 0)?
**A.** -0.08641

**Q.** What about the IC50 (MAPKAPK2; [2]) of the same compound?
**A.** > 10000 nM

**Q.** And the “0.001 uM KAM” value (MAPKAPK2; relative to 0 uM KAM = 0)?
**A.** 0.05207

**Q.** What about the “0.01 uM KAM” value (MAPKAPK2; relative to 0 uM KAM = 0) of the same compound?
**A.** -0.01973

**Q.** What about the “0.1 uM KAM” value (MAPKAPK2; relative to 0 uM KAM = 0) of the same compound?
**A.** 0.02471

**Q.** What about the “1 uM KAM” value (MAPKAPK2; relative to 0 uM KAM = 0) of the same compound?
**A.** 0.08157

**Q.** And the “10 uM KAM” value (MAPKAPK2; relative to 0 uM KAM = 0)?
**A.** 0.02045

**Q.** And the “median Log10 fold change” value (MAPK9; 0.001 uM KAM)?
**A.** -0.01416

**Q.** What about the “median Log10 fold change” value (MAPK9; 0.01 uM KAM) of the same compound?
**A.** -0.02342

**Q.** What about the “median Log10 fold change” value (MAPK9; 0.1 uM KAM) of the same compound?
**A.** -0.0954

**Q.** What about the “median Log10 fold change” value (MAPK9; 1 uM KAM) of the same compound?
**A.** -0.2518

**Q.** And the “median Log10 fold change” value (MAPK9; 10 uM KAM)?
**A.** -0.4014

**Q.** And the IC50 (MAPK9; [1])?
**A.** 2070 nM

**Q.** What about the IC50 (BAZ1B; [2]) of the same compound?
**A.** > 10000 nM

**Q.** And the “0.001 uM KAM” value (BAZ1B; relative to 0 uM KAM = 0)?
**A.** -0.04632

**Q.** What about the “0.01 uM KAM” value (BAZ1B; relative to 0 uM KAM = 0) of the same compound?
**A.** -0.04267

**Q.** What about the “0.1 uM KAM” value (BAZ1B; relative to 0 uM KAM = 0) of the same compound?
**A.** -0.03143

**Q.** And the “1 uM KAM” value (BAZ1B; relative to 0 uM KAM = 0)?
**A.** -0.000154

**Q.** And the “10 uM KAM” value (BAZ1B; relative to 0 uM KAM = 0)?
**A.** -0.05532
